“Also recorded” adds a separate entry of the source. Read-outs that look alike come from different tables or passages of the source. Marks after values point to notes of the source that are not given here.
What was measured:
KB-V1, drug resistant KB = assay: In vitro cytotoxicity, human tumor panel: KB-V1 with or without vinblastine; format: cell-based
Procedure: Cytotoxicity assay. Compounds 1–9 were evaluated for cytotoxic activity against a panel of human cancer cell lines, including KB-V1 in the presence and absence of VLB, according to an established protocol (68).

[1] = system: SKVLB (ovarian adenocarcinoma, multidrug resistance); assay: Multidrug resistance inhibition in SKVLB (pGp +ve); format: cell-based, human
KB-8-5 cells = assay: Reversal of MDR, cell survival assay: KB-8-5 with or without colchicine; format: cell-based, human; settings: for Ratio of IC50 values KB-3/[KB-8-5 (+)] / Ratio of IC50 values [KB-8-5 (−)]/[KB-8-5 (+)]: colchicine 10 ng/ml
Procedure: (§1) Cytotoxic potential. The cytotoxic potential of test substances with KB-3, KB-V1 and KB-8-5 cells was determined as described previously (24). Briefly, various concentrations of test compounds (dissolved in 10 μl of 10% DMSO) were transferred to 96-well plates, and 190 μl aliquots of cell suspensions (5×10^4 cells/ml) were added to each well. The plates then were incubated for 72 hours at 37° C. (100% humidity with a 5% CO2 atmosphere in air), and 100 μl of cold 20% aqueous trichloroacetic acid were added to the growth medium in each well to fix the cells. The cultures were incubated at 4° C. for 30 minutes, washed, air-dried, stained with sulforhodamine B solution, and washed with 1% acetic acid. […] In each case, a zero-day control was performed by adding an equivalent number of cells to several wells and incubating at 37° C. for 30 minutes, and processing as described above. Optical density values obtained with the zero-day control were subtracted, and cell survival, relative to control (solvent-treated) cultures, was calculated. The cytotoxic potential of the compounds with CEM and CEM/VLB100 cells was determined as described by Beck et al. (30). Cells were grown in 24-well plates at a density of 5–6×10^5 cells/ml. At 48 hours, the cell number was determined using a Coulter Counter, with a channelizer to distinguish cells from debris.

CEM/VLB100 cells = assay: MDR reversal in drug-resistant human leukemia CEM/VLB100 cells; format: cell-based; settings: for IC50: Homo sapiens
Procedure: as §1

MDR1 mRNA = assay: RT-PCR analysis of MDR1 mRNA expression; format: cell-based, human; settings: KB-V1 and CEM/VLB100 cells, 72 hours; pervilleine A up to 34 μM (up to 45 μM), verapamil up to 44 μM
Procedure: RT-PCR analysis of MDR1 mRNA expression. […] Total RNA was isolated from cultured KB-3, KB-V1, CEM and CEM/VLB100 cells with TRIzol reagent (Life Technologies, Inc.) (33), and quantified by UV absorbance. The reverse transcription of RNA was performed by using the SUPERScript™ Preamplification System (Life Technologies, Inc.) in a final volume of 21 μl containing 5×First Strain Synthesis Buffer, 2.5 mM MgCl2, 0.5 mM each dNTP, […], 2 units of RNAse inhibitor, 200 units of Super-Scrip II reverse transcriptase, 0.5 μg oligo (dT)12-18, 2 μg of total RNA (3 μg for CEM and CEM/VLB100 cells), and DEPC-treated water. After incubation at 42° C. for 50 minutes, the room temperature reaction was terminated by heating to 70° C. for 15 minutes. To the newly synthesized cDNA (2 μl), a PCR mixture containing 1.4 mM MgCl2 (1.2 mM for CEM and CEM/VLB100 cells), 2.5 units of Taq polymerase, 0.2 μmol (0.6 μmol for CEM and CEM/VLB100 cells) of primers based on the MDR1 gene (35) and custom synthesized by Ana-Gen Technology, Inc. (Palo Alto, Calif.) (5′-[…]-3′; 5′-[…]-3′) (35). As an internal control, 0.125 μmol (0.1 μmol for CEM and CEM/VLB100 cells) of primers for GAPDH (5′-[…]-3′; 5′-[…]-3′) (36) were added (final volume to 50 μl). […]

[2] = pervilleine A 5 μM, verapamil 10 μM

With `COc1cc(C=CC(=O)O[C@H]2[C@@H](O)[C@@H]3C[C@H](OC(=O)c4cc(OC)c(OC)c(OC)c4)C[C@H]2N3C)cc(OC)c1OC` [Compound 3, 3α-(3,4,5-trimethoxybenzoyloxy)-6β-(3,4,5-trimethoxycinnamoyloxy)-7β-hydroxytropane] the IC50 (KB-V1, drug resistant KB; Homo sapiens, KB-V1, drug-resistant KB assessed in the absence of vinblastine, read-out: ED50 KB-V1−) was > 20 µg/mL, the “ED50 KB-V1+” value (KB-V1, drug resistant KB; drug resistant KB assessed in presence of vinblastine (1 μg/mL)) was 0.3 µg/mL and the IC50 ([1]; Homo sapiens, read-out: IC50 BSKVLB (pGp + ve)) was > 10000 nM. The IC50 ([1]; read-out: IC50 SKVLB (pGp + ve), addition of adriamycin, Addition of 1 μm adriamycin) was 650 nM, the IC50 (KB-8-5 cells; Homo sapiens) was 14000 nM and the “Ratio of IC50 values KB-3/[KB-8-5 (+)]” value (KB-8-5 cells; listed as Pervilleine A) was 40.3^d. The “Ratio of IC50 values [KB-8-5 (−)]/[KB-8-5 (+)]” value (KB-8-5 cells; listed as Pervilleine A) was 23.3^d, the “Ratio of IC50 values KB-3/[KB-8-5 (+)]” value (KB-8-5 cells; listed as pervilleine A) was 40.3 and the “Ratio of IC50 values [KB-8-5 (−)]/[KB-8-5 (+)]” value (KB-8-5 cells; listed as pervilleine A) was 23.3. For the same compound, the IC50 (CEM/VLB100 cells; CEM/VLB100, 48 h, read-out: IC50 Modulator only) was > 15000 nM, the IC50 (CEM/VLB100 cells; CEM/VLB100, read-out: IC50 (Modulator + Daunorubicin)) was 65 nM and the IC50 (CEM/VLB100 cells; CEM/VLB100, read-out: IC50 (Modulator + Vinblastine)) was 20 nM. For the same compound, the “Ratio of IC50 values Daunorubicin/(Modulator + Daunorubicin)” value (CEM/VLB100 cells; [2]) was 15^c, the “Ratio of IC50 values Modulator/(Modulator + Daunorubicin)” value (CEM/VLB100 cells; [2]) was >231^c and the “Ratio of IC50 values Modulator/(Modulator + Vinblastine)” value (CEM/VLB100 cells; [2]) was >750^c. For the same compound, the “Ratio of IC50 values Vinblastine/(Modulator + Vinblastine)” value (CEM/VLB100 cells; [2]) was 250^c and the “effect on MDR1 mRNA (transcription of MDR1)” value (MDR1 mRNA) was “no significant effect; also recorded: did not significantly alter; also recorded: did not significantly affect”.

From patent US6989396B2, “Tropane alkaloid multidrug resistance inhibitors from Erythroxylum pervillei and use of the same” (The Board of Trustees of the University of Illinois, priority 2001, dated 2006)
